Test results from ChEMBL document CHEMBL1287690, “Mycoepoxydiene, a fungal polyketide, induces cell cycle arrest at the G2/M phase and apoptosis in HeLa cells” (Bioorg Med Chem Lett, 2010).
The source made the active and inactive calls. No cut-off for these calls is given here.

Tests used:
[1] = test system: HeLa; assay: Induction of apoptosis in human HeLa cells assessed as increase in production of cyclin B1 at 14 to 21 uM after 12 hrs by immunoblot assay; type: functional, cell-based
[2] = test system: MDA-MB-231; assay: Growth inhibition in human MDA-MB-231 cells after 72 hrs by MTT assay; type: functional, cell-based
[3] = test system: HeLa; assay: Cytotoxicity against human HeLa cells after 72 hrs by MTT assay; type: functional, cell-based
[4] = test system: HeLa; assay: Induction of apoptosis in human HeLa cells assessed as reduction in expression of GADD45alpha after 12 hrs by immunoblot assay; type: functional, cell-based
[5] = test system: HeLa; assay: Induction of apoptosis in human HeLa cells assessed as reduction in expression of GADD45alpha at 14 to 21 uM by immunoblot assay; type: functional, cell-based; settings: TDE = time-dependent effect
[6] = test system: HeLa; assay: Induction of apoptosis in human HeLa cells assessed as cell death in presence of 25 uM of […] z-VAD-fmk; type: functional, cell-based
[7] = test system: U2OS; assay: Growth inhibition in human U2OS cells after 72 hrs by MTT assay; type: functional, cell-based
[8] = test system: HeLa; assay: Induction of apoptosis in human HeLa cells assessed as increase in actin stress fiber formation across cell body at 14 to 21 uM by phase contrast microscopic analysis; type: functional, cell-based; settings: TDE = time-dependent effect
[9] = test system: HeLa; assay: Induction of apoptosis in human HeLa cells assessed as reduction in expression of WEE1 at 14 to 21 uM by immunoblot assay; type: functional, cell-based; settings: TDE = time-dependent effect
[10] = test system: HeLa; assay: Induction of apoptosis in human HeLa cells assessed as increase in PARP cleavage at 21 uM after 12 to 28 hrs by Western blotting; type: functional, cell-based
[11] = test system: HeLa; assay: Induction of apoptosis in human HeLa cells assessed as reduction in expression of chk2 at 14 to 21 uM by immunoblot assay; type: functional, cell-based; settings: TDE = time-dependent effect
[12] = test system: HeLa; assay: Induction of apoptosis in human HeLa cells assessed as reduction in expression of Myt1 at 14 to 21 uM by immunoblot assay; type: functional, cell-based; settings: TDE = time-dependent effect
[13] = test system: HeLa; assay: Induction of apoptosis in human HeLa cells assessed as increase in cleavage fragments of p17 and p12 at 21 uM after 12 to 28 hrs by Western blotting; type: functional, cell-based
[14] = test system: HeLa; assay: Growth inhibition in human HeLa cells after 72 hrs by MTT assay; type: functional, cell-based
[15] = test system: HeLa; assay: Induction of apoptosis in human HeLa cells assessed as reduction in expression of Cdc2 at 14 to 21 uM by immunoblot assay; type: functional, cell-based; settings: TDE = time-dependent effect
[16] = test system: HeLa; assay: Induction of apoptosis in human HeLa cells assessed as reduction in expression of p34 at 14 to 21 uM by immunoblot assay; type: functional, cell-based; settings: TDE = time-dependent effect
[17] = test system: HeLa; assay: Cell cycle arrest in human HeLa cells assessed as accumulation at G2/M phase at 14 uM after 36 hrs using propidium iodide staining by flow cytometry relative to control; type: functional
[18] = test system: HeLa; assay: Induction of apoptosis in human HeLa cells assessed as morphological changes at 14 to 21 uM after 9 hrs by phase contrast microscopic analysis; type: functional, cell-based
[19] = test system: HeLa; assay: Cell cycle arrest in human HeLa cells assessed as accumulation at G2/M phase at 21 uM after 36 hrs using propidium iodide staining by flow cytometry relative to control; type: functional
[20] = test system: HeLa; assay: Induction of apoptosis in human HeLa cells assessed as increase of dead cells at 12 uM using propidium iodide staining by flow cytometry; type: functional, cell-based; settings: TDE = time-dependent effect
[21] = test system: HeLa; assay: Induction of apoptosis in human HeLa cells assessed as increase of dead cells after 24 hrs using propidium iodide staining by flow cytometry; type: functional, cell-based
[22] = test system: DU-145; assay: Growth inhibition in human DU145 cells after 72 hrs by MTT assay; type: functional, cell-based
[23] = test system: HeLa; assay: Induction of apoptosis in human HeLa cells assessed as increase in actin stress fiber formation across cell body after 12 hrs by phase contrast microscopic analysis; type: functional, cell-based; settings: TDE = time-dependent effect
[24] = test system: HeLa; assay: Induction of apoptosis in human HeLa cells assessed as reduction in expression of chk1 after 12 hrs by immunoblot assay; type: functional, cell-based
[25] = test system: HeLa; assay: Induction of apoptosis in human HeLa cells assessed as reduction in expression of Cdc2 after 12 hrs by immunoblot assay; type: functional, cell-based
[26] = test system: HeLa; assay: Induction of apoptosis in human HeLa cells assessed as disruption of tubulin cytoskeleton at 14 to 21 uM by phase contrast microscopic analysis; type: functional, cell-based
[27] = test system: AGS; assay: Growth inhibition in human AGS cells after 72 hrs by MTT assay; type: functional, cell-based
[28] = test system: HeLa; assay: Induction of p38 expression in human HeLa cells at 21 uM after 8 hrs by Western blotting; type: functional, cell-based
[29] = biological target: MAP kinase p38 (Homo sapiens) (UniProt O15264+Q15759+Q16539+P53778); assay: Induction of p38 phosphorylation at Thr180/Tyr182 in human HeLa cells assessed at 21 uM after 30 mins by Western blotting; type: cell-based
[30] = test system: HeLa; assay: Induction of apoptosis in human HeLa cells assessed cell death up to 20 uM after 48 hrs using propidium iodide staining by flow cytometry in presence of SB-203580 treated 1 hr before compound challenge; type: functional, cell-based
[31] = test system: HeLa; assay: Induction of apoptosis in human HeLa cells assessed as increase in cytochrome C in cytoplasm at 21 uM after 20 hrs by Western blotting; type: functional, cell-based
[32] = test system: HeLa; assay: Induction of apoptosis in human HeLa cells assessed cell death up to 20 uM after 48 hrs using propidium iodide staining by flow cytometry in presence of JNK inhibitor 2 treated 1 hr before compound challenge; type: functional, cell-based
[33] = test system: HeLa; assay: Induction of apoptosis in human HeLa cells assessed as reduction in expression of chk1 at 14 to 21 uM by immunoblot assay; type: functional, cell-based; settings: TDE = time-dependent effect
[34] = test system: HT-29; assay: Growth inhibition in human HT-29 cells after 72 hrs by MTT assay; type: functional, cell-based
[35] = test system: HeLa; assay: Induction of apoptosis in human HeLa cells assessed as reduction in expression of chk2 after 12 hrs by immunoblot assay; type: functional, cell-based
[36] = test system: HeLa; assay: Induction of apoptosis in human HeLa cells assessed as reduction in expression of WEE1 after 12 hrs by immunoblot assay; type: functional, cell-based
[37] = test system: HeLa; assay: Cell cycle arrest in human HeLa cells assessed as accumulation at G2/M phase at 14 uM after 12 hrs using propidium iodide staining by flow cytometry relative to control; type: functional
[38] = test system: HeLa; assay: Induction of JNK expression in human HeLa cells at 21 uM after 8 hrs by Western blotting; type: functional, cell-based
[39] = test system: HeLa; assay: Induction of apoptosis in human HeLa cells assessed as increase of dead cells at 11 uM using propidium iodide staining by flow cytometry; type: functional, cell-based; settings: TDE = time-dependent effect
[40] = test system: HeLa; assay: Cell cycle arrest in human HeLa cells assessed as accumulation at sub-G1 phase at 21 uM after 36 hrs using propidium iodide staining by flow cytometry relative to control; type: functional
[41] = biological target: c-Jun N-terminal kinase, JNK (Homo sapiens) (UniProt P45983+P53779+P45984); assay: Induction of JNK phosphorylation at Thr183/Tyr185 in human HeLa cells at 21 uM after 30 mins by Western blotting; type: cell-based
[42] = test system: HeLa; assay: Induction of apoptosis in human HeLa cells assessed as increase in production of p21 at 14 to 21 uM after 12 hrs by immunoblot assay; type: functional, cell-based
[43] = test system: MDA-MB-435; assay: Growth inhibition in human MDA-MB-435 cells after 72 hrs by MTT assay; type: functional, cell-based
[44] = test system: HeLa; assay: Cell cycle arrest in human HeLa cells assessed as accumulation at sub-G1 phase at 14 uM after 36 hrs using propidium iodide staining by flow cytometry relative to control; type: functional
[45] = test system: MCF7; assay: Growth inhibition in human MCF7 cells after 72 hrs by MTT assay; type: functional, cell-based
[46] = test system: HeLa; assay: Induction of apoptosis in human HeLa cells assessed as reduction in expression of p34 after 12 hrs by immunoblot assay; type: functional, cell-based
[47] = test system: HeLa; assay: Induction of apoptosis in human HeLa cells assessed as reduction in expression of Myt1 after 12 hrs by immunoblot assay; type: functional, cell-based
[48] = test system: OVCAR-3; assay: Growth inhibition in human OVCAR-3 cells after 72 hrs by MTT assay; type: functional, cell-based
[49] = test system: A549; assay: Growth inhibition in human A549 cells after 72 hrs by MTT assay; type: functional, cell-based
[50] = test system: KB; assay: Cytotoxicity against human KB cells by MTT assay; type: functional, cell-based
[51] = test system: HeLa; assay: Cell cycle arrest in human HeLa cells assessed as accumulation at G2/M phase at 21 uM after 12 hrs using propidium iodide staining by flow cytometry relative to control; type: functional
[52] = test system: HeLa; assay: Induction of apoptosis in human HeLa cells assessed as increase in caspase-3 cleavage at 21 uM after 12 to 28 hrs by Western blotting in presence of z-VAD-fmk; type: functional, cell-based

Activity [29]: Active
Activity [41]: Active
Structure (SMILES): CC(=O)O[C@H]1C=CC(=O)O[C@H]1[C@@H]1[C@H](C)[C@H]2C=CC=C[C@@H]1O2 [MYCOEPOXYDIENE]
Activity [1]: Active
growth inhibition (GI) [2]: Active
IC50 [3]: 16.8 µM
Activity [4]: Dose-dependent effect
Activity [5]: tde
Activity [6]: inactive
growth inhibition (GI) [7]: Active
Activity [8]: tde
Activity [9]: tde
Activity [10]: Active
Activity [11]: tde
Activity [12]: tde
Activity [13]: Active
growth inhibition (GI) [14]: Active
Activity [15]: tde
Activity [16]: tde
Activity [17]: 31.4%
Activity [18]: Active
Activity [19]: 31.3%
Activity [20]: tde
Activity [21]: Dose-dependent effect
growth inhibition (GI) [22]: Active
Activity [23]: tde
Activity [24]: Dose-dependent effect
Activity [25]: Dose-dependent effect
Activity [26]: Dose-dependent effect
growth inhibition (GI) [27]: Active
Activity [28]: inactive
Activity [30]: Active
Activity [31]: Active
Activity [32]: Active
Activity [33]: tde
growth inhibition (GI) [34]: Active
Activity [35]: Dose-dependent effect
Activity [36]: Dose-dependent effect
Activity [37]: 40.9%
Activity [38]: inactive
Activity [39]: tde
Activity [40]: 23.3%
Activity [42]: Active
growth inhibition (GI) [43]: Active
Activity [44]: 4.8%
growth inhibition (GI) [45]: Active
Activity [46]: Dose-dependent effect
Activity [47]: Dose-dependent effect
growth inhibition (GI) [48]: Active
growth inhibition (GI) [49]: Active
IC50 [50]: < 21.5 µM
Activity [51]: 47.5%
Activity [52]: inactive
